Experimental data as given in ChEMBL document CHEMBL1134775, “Structure-based design: potent inhibitors of human brain memapsin 2 (beta-secretase)” (J Med Chem, 2001).

What follows are molecules tested against Beta-secretase 1 (Homo sapiens, UniProt P56817) (assay: Binding affinity for human brain memapsin 2).
Sequence of Beta-secretase 1 (P56817 whole entry): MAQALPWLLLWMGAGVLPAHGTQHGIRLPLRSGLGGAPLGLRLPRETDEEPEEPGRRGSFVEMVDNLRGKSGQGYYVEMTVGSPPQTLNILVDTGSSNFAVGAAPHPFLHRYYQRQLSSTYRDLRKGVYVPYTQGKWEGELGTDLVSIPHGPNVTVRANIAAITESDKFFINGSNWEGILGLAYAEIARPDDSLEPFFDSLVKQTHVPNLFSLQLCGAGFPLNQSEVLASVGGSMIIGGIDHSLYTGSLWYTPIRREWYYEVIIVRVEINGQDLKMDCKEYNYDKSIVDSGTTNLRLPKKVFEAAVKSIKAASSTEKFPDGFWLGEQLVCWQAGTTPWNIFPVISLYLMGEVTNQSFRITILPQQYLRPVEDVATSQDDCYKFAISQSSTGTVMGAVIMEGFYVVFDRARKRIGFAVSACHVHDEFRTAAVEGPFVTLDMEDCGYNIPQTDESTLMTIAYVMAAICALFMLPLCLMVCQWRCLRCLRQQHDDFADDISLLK

Row | Ki | Compound
1 | 1130 nM | CC(C)C[C@H](NC(=O)[C@H](CS(C)(=O)=O)NC(=O)OC(C)(C)C)[C@@H](O)C[C@@H](C)C(=O)N[C@H](C(=O)NCc1ccccc1)C(C)C
2 | 5810 nM | CSCC[C@H](NC(=O)OC(C)(C)C)C(=O)N[C@@H](CC(C)C)[C@@H](O)C[C@@H](C)C(=O)N[C@H](C(=O)NCc1ccccc1)C(C)C
3 | 61.4 nM | CC(C)C[C@H](NC(=O)[C@H](CC(N)=O)NC(=O)[C@@H](NC(=O)OC(C)(C)C)C(C)C)[C@@H](O)C[C@@H](C)C(=O)N[C@@H](C)C(=O)NCc1ccccc1
4 | 22400 nM | CC(C)C[C@H](NC(=O)[C@H](CC(N)=O)NC(=O)OC(C)(C)C)[C@@H](O)C[C@@H](C)C(=O)N[C@@H](C)C(=O)NCc1ccccc1
5 | 5.9 nM | CC(C)C[C@H](NC(=O)[C@H](CC(N)=O)NC(=O)[C@@H](NC(=O)OC(C)(C)C)C(C)C)[C@@H](O)C[C@@H](C)C(=O)N[C@H](C(=O)NCc1ccccc1)C(C)C

Second part, the molecule before the results:

Row | Compound | Ki
6 | CSCC[C@H](NC(=O)[C@@H](NC(=O)OC(C)(C)C)C(C)C)C(=O)N[C@@H](CC(C)C)[C@@H](O)C[C@@H](C)C(=O)N[C@H](C(=O)NCc1ccccc1)C(C)C | 2.5 nM
7 | CC(C)C[C@H](NC(=O)[C@H](CC(N)=O)NC(=O)C(N)C(C)C)[C@@H](O)C[C@@H](C)C(=O)N[C@@H](C)C(=O)N[C@H](CCC(=O)O)C(=O)NC(Cc1ccccc1)C(=O)O (some centres undefined) | 36 nM
8 | CC(C)C[C@H](NC(=O)[C@H](CS(C)(=O)=O)NC(=O)[C@@H](NC(=O)OC(C)(C)C)C(C)C)[C@@H](O)C[C@@H](C)C(=O)N[C@H](C(=O)NCc1ccccc1)C(C)C | 9.4 nM
9 | CSC[C@H](NC(=O)[C@@H](NC(=O)OC(C)(C)C)C(C)C)C(=O)N[C@@H](CC(C)C)[C@@H](O)C[C@@H](C)C(=O)N[C@H](C(=O)NCc1ccccc1)C(C)C | 50.1 nM
